Here are results for two compounds from patent US9481885B2, “Methods and compositions related to miR-21 and miR-29a, exosome inhibition, and cancer metastasis” (Ohio State Innovation Foundation, priority 2011, dated 2016).

In test [1] the test system is TLR8-HEK-293 cells. Nature of the test: NF-κB activation in TLR8-HEK-293 cells treated with LLC exosomes, with or without Bafilomycin A. The test is classed as cell-based, human. The note with it: TLR8-HEK-293 cells pretreated with 10 nM Bafilomycin A; P<0.0005. As for the experimental part:
Next, LLC cells were injected into the tails of WT and TLR7^−/− mice and the overall survival of the animals and number of lung multiplicities after necropsy was assessed. […] For the experiment with Bafilomycin A, TLR8-HEK-293 cells were seeded in a 24-well plate at a density of 200,000 cells per well. The next day cells were preincubated with 10 nM Bafilomycin A (Sigma) for 30 min and then were treated for 24 h with exosomes purified from LLC cells in the presence or absence of 10 nM Bafilomycin A. Cell supernatants were collected and harvested, and the QUANTI-Blue Assay was performed. NF-κB activity was assessed by QUANTI-Blue Assay (Invivogen). HEK-Blue-TLR7 and TLR8 293 cells allow verification of the activation of NF-κB after the stimulation of the respective TLRs. Both these cell lines were obtained by co-transfection of the TLR7 and 8 genes and an optimized secreted embryonic alkaline phosphatase reporter gene (SEAP) under the control of the […] minimal promoter fused to five NF-κB and AP-1-binding sites into HEK-293 cells. […] Levels of SEAP can be easily determined with QUANTI-Blue, a detection medium that turns purple/blue in the presence of alkaline phosphatase. […] The plate was then incubated at 37° C. for 1-3 h and SEAP levels were determined by reading the plate with a spectrophotometer at 620-655 nm (SpectraMax, Molecular Devices).

Test [2] deals with LLC cells. The experiment in a line: Lung multiplicities in LLC-injected B6 mice treated with GW4869, with exosome rescue. The test is classed as in vivo, mouse. To be noted: WT B6 mice injected with LLC cells; GW4869 i.p. 1.25 mg/kg/d for 5 d. As for the experimental part:
Finally, to assess the role of miRNAs released from lung cancer exosomes in TLR7 activation and in the metastatic process, the expression was silenced of miR-16 or of miR-21 and -29a combined in LLC cells by Locked Nucleic Acid (LNA) anti-miRNA inhibitors. After anti-miRNA transfection, the levels of the silenced miRNAs were reduced in the exosomes derived from these cells (FIG. 7F). The transfected cells were injected into the tail vein of B6 mice, and lung multiplicities were counted. […] We further investigated which miRNAs are expressed in cancer cells and adjacent normal lung tissues in mice injected with anti-scrambled LLCs or anti-miR-21/29a LLCs. Cancer cells in lung tumors developed by mice injected with anti-scrambled LLC were positive for the anti-scrambled oligonucleotide.
The in vivo rescue experiment with LLC cells was conducted in 15 male, 7-wk-old B6 mice. Mice were injected with 1.8×10^6 LLC cells in the tail vein in 300 μL of volume (T0). After 4 d (T4), i.p. injections were started for 10 mice with GW4869 (1.25 mgkg^−1d^−1), an inhibitor of exosome secretion also able to reduce the content of miRNAs in secreted exosomes, and of five mice with DMSO (a solvent of GW4869) as a control, daily for 5 d consecutively. […] All mice were killed at T18, necropsy was performed, and lung multiplicities were counted.

With `CO/C1=C\C(C)=C\[C@@H](C)[C@@H](O)[C@@H](C)C/C(C)=C/C=C/[C@H](OC)[C@@H]([C@@H](C)[C@@H](O)[C@H](C)[C@@]2(O)C[C@@H](O)[C@H](C)[C@@H](C(C)C)O2)OC1=O` [Bafilomycin A], in test [1], the “NF-κB activation by LLC-derived exosomes in the presence of Bafilomycin A” value is “significantly reduced”.
`O=C(/C=C/c1ccc(/C=C/C(=O)Nc2ccc(C3=NCCN3)cc2)cc1)Nc1ccc(C2=NCCN2)cc1` [GW4869]: in test [2], the “number of lung multiplicities” value was “significantly lower”.
